Assay results as given in patent US5296604A, “Proline derivatives and compositions for their use as inhibitors of HIV protease” (priority 1992, dated 1994).
Like-named read-outs stand apart in the source and are kept apart here.

Target: T1, HIV protease (Human immunodeficiency virus type 1 group M subtype B, UniProt P03366)
T1 construct: the predicted size of the protease is 99 amino acids
Experiment: HIV protease inhibition, fluorometric RP-HPLC assay with N-dansyl-peptide substrate
Assay type: biochemical
Details: for inhibitory potency (in words): comparison by stereochemistry (2S,3S versus 2R,3R) and by hexan-1-olyl versus hexanoate group; for activity relative to range necessary for therapeutic development: in words; for HIV Protease IC50 values of tested Examples (estimated): *Estimated IC50 from the observed inhibition at 10 μM concentration; for IC50 (estimated): estimated from the % inhibition at 10000 nM final
Description: Following synthesis, the preferred embodiment compounds were tested for HIV protease inhibition. For in vitro potency testing, the N terminus of substrate amino acid sequences were first dansylated. The amino acid sequences present in such N-dansyl-peptide substrates can include, but are not limited to native proteolytic cleavage site sequences for the HIV gag and pol polyproteins.
The prepared substrates were incubated with HIV protease and compounds of the present invention, under conditions in which the protease is catalytically active. […] Following incubation, aliquots of the incubate were analyzed with reverse phase high performance liquid chromatography (hereinafter "RP-HPLC"). Any uncoverted peptide substrate is resolved from peptide product(s) and then detected by an inline fluorescence monitor. The amount of product formed over a known time interval may then be used to calculate the activity of the enzyme under the specific assay conditions. The amount of fluorescence detected in the eluted peak from HPLC can be related to the amount of peptide in the peak by prior HPLC analysis of standardized samples. The amount of peptide in the pure, standardized samples is determined accurately by amino acid analysis.
Inhibitory potency was assessed, in vitro, according to published procedures in Tamburini et al., 1990, "A Fluorometric Assay for HIV-Protease Activity Using High-Performance Liquid Chromatography", Analytical Biochemistry, 186:363.
HIV-protease was pre-incubated with or without the inhibitor compound at 37° C. and under buffer, ionic strength and pH conditions affording optimal protease activity. An N-dansyl-peptide substrate was then added to the incubation mixture. For example the dansylated substrate could be:
N-Dansyl-Ser-Gln-Asn-Tyr-Pro-Ile-Val (SEQ ID NO: 1)
The incubation mixture was then incubated at 37° C. During the incubation, the substrate is cleaved by the protease at the Tyr-Pro peptide bond to yield N-Dansyl-Ser-Gln-Asn-Tyr (SEQ ID NO: 2). At the end of the incubation (40 min) the reaction was terminated by acidification with TFA, and the amounts of unconverted substrate and fluorescent product were detected and quantified by subsequent RP-HPLC analysis with post column fluorescence detection.
The rate of cleavage of the substrate is quantified from the amount of product formed in the known incubation time. Specific assay conditions were as follows:
Incubations (75 ul) containing the complete system without substrate were preincubated at 37° C. for 15 min prior to initiation of the protease reaction by the addition of 25 ul of stock 400 uM substrtate peptide solution. The initial component concentrations at the start of the reaction were: HIV-protease (20 ul of a dilution sufficient to produce 40 to 60% substrate cleavage in 40 min), dimethyl sulphoxide (5%v/v), N-Dansyl-Ser-Gln-Asn-Tyr- […] (SEQ ID NO: 1) (100 uM), and sodium chloride (3 M) in 150 mM mes buffer pH 6.0. After a further incubation time of 40 min at 37° C. reactions were terminated by the addition of 50 ul of 12% (v/v) tri-flouroacetic acid, and then loaded into the HPLC autosampler for analysis.
Inhibitors were added to the incubation mixtures […] to protease addition before the preincubation, as stock solutions in dimethyl suphoxide, lower concentrations of inhibitor were obtained by serial dilution of the incubation mixture containing the highest inhibitor concentration. The range of inhibitor concentrations were designed to cover the range yielding zero to 100% inhibition of protease activity. Dilution of the HIV-protease activity (so as to achieve an amount of enzyme activity in 20 ul to produce 40 to 60% substrate conversion when added to the incubation) was achieved using the following buffer: 50 mM sodium acetate buffer pH 5.2, 50 mM sodium chloride, 20 mM DL-dithiothreitol, 20% (v/v) glycerol, 0.1% (v/v) triton X-100 and 1.5 M urea. […]

[1] = Table I, NI = no inhibition at 10 μM final concentration, 37 °C, 40 min, pH 6.0, read-out: HIV Protease IC50 values of tested Examples
[2] = Table II, titrated (Dixon plot, inhibitor up to 100-10000 nM), NI = no inhibition (tested at 10000 nM), read-out: IC50 (concentration in the assay incubation which inhibits the HIV protease activity by 50%)

Row | SMILES | IC50 [1] [µM] | inhibitory potency (in words) | IC50 [2] [µM] | further results
1 | CC[C@H](C)[C@H](NC(=O)[C@@H]1CCCN1[C@H](CO)[C@H](CC(C)C)NC(=O)[C@H](CC(N)=O)NC(=O)OCc1ccccc1)C(=O)NCc1ccccc1 [Example 12, (2S, 3S) N-[2-(3-(N-carbobenzyloxy-asparaginyl)amino-5-methylhexan-1-olyl)]-Prolyl-Isoleucine N-Benzyl amide] | 0.125 | significant inhibitor potency | – | increase in inhibitory potency by additional Asn residue (Example 12 versus Example 9): 152 fold; activity relative to range necessary for therapeutic development: within the range necessary for therapeutic development
2 | CC[C@H](C)[C@H](NC(=O)[C@@H]1CCCN1[C@H](C(=O)OC)[C@H](CC(C)C)NC(=O)[C@H](CC(N)=O)NC(=O)c1ccc2ccccc2n1)C(=O)NCc1ccccc1 [Example 14] | – | – | – | HIV Protease IC50 values of tested Examples (estimated) (Table I): > 50 µM; IC50 (estimated) (Table II): > 50 µM
3 | CC[C@H](C)[C@H](NC(=O)[C@@H]1CCCN1[C@@H](C(=O)OC)[C@@H](CC(C)C)NC(=O)[C@H](CC(N)=O)NC(=O)c1ccc2ccccc2n1)C(=O)NCc1ccccc1 [Example 16, (2R, 3R) N-[2 (3-(N-guinaldyl-asparaginyl)amino-5-methyl-hexanoate)]-Prolyl-Isoleucine N-Benzyl amide] | > 10 | – | > 10 | –
4 | CC[C@H](C)[C@H](NC(=O)[C@@H]1CCCN1[C@H](CO)[C@H](CC(C)C)NC(=O)OCc1ccccc1)C(=O)NCc1ccccc1 [Example 9, (2S, 3S) N-[2-(3-carbobenzyoxyamino-5-methylhexan-1-olyl)]-Prolyl-Isoleucine N-Benzyl amide] | 1.9 | significant inhibitor potency | – | –
5 | CC[C@H](C)[C@H](NC(=O)[C@@H]1CCCN1[C@@H](CO)[C@@H](CC(C)C)NC(=O)[C@H](CC(N)=O)NC(=O)c1ccc2ccccc2n1)C(=O)NCc1ccccc1 [Example 17, (2R, 3R) N-[2-(3-(N-guinaldyl-asparaginyl)amino-5-methylhexan-1-olyl)]-Prolyl-Isoleucine N-Benzyl amide] | – | innactive or poorly active | – | HIV Protease IC50 values of tested Examples (estimated) (Table I): 15 µM; IC50 (estimated) (Table II): 15 µM
6 | CC[C@H](C)[C@H](NC(=O)[C@@H]1CCCN1[C@H](C(=O)OC)[C@H](CC(C)C)NC(=O)OCc1ccccc1)C(=O)NCc1ccccc1 [Example 7, (2S, 3S) N-[methyl 2-(3-carbobenzyloxyamino-5-methyl-hexanoyl)]-Prolyl-Isoleucine N-Benzyl amide] | > 10 | – | > 10 | –
7 | CC[C@H](C)[C@H](NC(=O)[C@@H]1CCCN1[C@@H](CO)[C@@H](CC(C)C)NC(=O)OCc1ccccc1)C(=O)NCc1ccccc1 [Example 10] | > 10 | innactive or poorly active | > 10 | –
8 | CC[C@H](C)[C@H](NC(=O)[C@@H]1CCCN1[C@H](C(=O)OC)[C@H](CC(C)C)NC(=O)[C@H](CC(N)=O)NC(=O)OCc1ccccc1)C(=O)NCc1ccccc1 [Example 11b] | – | – | – | HIV Protease IC50 values of tested Examples (estimated) (Table I): 15 µM; IC50 (estimated) (Table II): 15 µM
9 | CC[C@H](C)[C@H](NC(=O)[C@@H]1CCCN1[C@@H](C(=O)OC)[C@@H](CC(C)C)NC(=O)OCc1ccccc1)C(=O)NCc1ccccc1 [Example 8] | > 10 | – | > 10 | –
10 | CC[C@H](C)[C@H](NC(=O)[C@@H]1CCCN1[C@H](C(=O)OC)[C@H](CC(C)C)NC(=O)[C@H](CC#N)NC(=O)OCc1ccccc1)C(=O)NCc1ccccc1 [Example 11a] | > 10 | – | > 10 | –
11 | CC[C@H](C)[C@H](NC(=O)[C@@H]1CCCN1[C@H](CO)[C@H](CC(C)C)NC(=O)[C@H](CC(N)=O)NC(=O)c1ccc2ccccc2n1)C(=O)NCc1ccccc1 [Example 15] | 0.035 | significant inhibitor potency | – | increase in inhibitory potency by N-quinaldehyde in place of N-carbo-benzyloxy (Example 15 versus Example 12): 3.6 fold; activity relative to range necessary for therapeutic development: within the range necessary for therapeutic development
